Assay results as given in the supplement of paper PMC8149375.

Experiments:
Settings in all cases: treatment: drug + dasatinib (fixed dose, not stated); 5 days
TK-10 [1] = experiment: minimum viability across doses, drug + dasatinib, relative to DMSO (fraction); higher = less growth inhibition
Description: (§1)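 Primary HTS combination arm: 8 RCC cell lines treated with 8 doses (up to 10 uM) of each library drug plus a fixed dose of dasatinib (dose not stated) for 5 days; viability read by CellTiter-Glo and normalised to DMSO. GI50 was fitted with XLfit, AUC is the area under the dose-response curve, and minimum viability is the lowest fraction of DMSO viability across doses.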

786-O [2] = experiment: as above
Description: as §1

UO-31 [3] = experiment: as above
Description: as §1

769-P [4] = experiment: as above
Description: as §1

A498 [5] = experiment: as above
Description: as §1

ACHN [6] = experiment: as above
Description: as §1

SN12C [7] = experiment: as above
Description: as §1

CAKI-1 [8] = experiment: as above
Description: as §1

TK-10 [9] = experiment: AUC of dose-response viability curve, drug + dasatinib, normalised to DMSO (arbitrary (AUC of normalised viability)); higher = less growth inhibition
Description: as §1

786-O [10] = experiment: as above
Description: as §1

UO-31 [11] = experiment: as above
Description: as §1

769-P [12] = experiment: as above
Description: as §1

A498 [13] = experiment: as above
Description: as §1

ACHN [14] = experiment: as above
Description: as §1

SN12C [15] = experiment: as above
Description: as §1

CAKI-1 [16] = experiment: as above
Description: as §1

TK-10 [17] = experiment: GI50 of drug in presence of dasatinib; higher = less potent
Description: as §1

786-O [18] = experiment: as above
Description: as §1

UO-31 [19] = experiment: as above
Description: as §1

769-P [20] = experiment: as above
Description: as §1

A498 [21] = experiment: as above
Description: as §1

SN12C [22] = experiment: as above
Description: as §1

CAKI-1 [23] = experiment: as above
Description: as §1

GI50 of drug (786-O [18]) [µM]	Compound	minimum viability across doses (TK-10 [1])	minimum viability across doses (786-O [2])	minimum viability across doses (UO-31 [3])	minimum viability across doses (769-P [4])	minimum viability across doses (A498 [5])	minimum viability across doses (ACHN [6])	minimum viability across doses (SN12C [7])	minimum viability across doses (CAKI-1 [8])	AUC of dose-response viability curve (TK-10 [9])	AUC of dose-response viability curve (786-O [10])	AUC of dose-response viability curve (UO-31 [11])	AUC of dose-response viability curve (769-P [12])	AUC of dose-response viability curve (A498 [13])	AUC of dose-response viability curve (ACHN [14])	AUC of dose-response viability curve (SN12C [15])	AUC of dose-response viability curve (CAKI-1 [16])	GI50 of drug (TK-10 [17]) [µM]	GI50 of drug (UO-31 [19]) [µM]	GI50 of drug (769-P [20]) [µM]	GI50 of drug (A498 [21]) [µM]	GI50 of drug (SN12C [22]) [µM]	GI50 of drug (CAKI-1 [23]) [µM]
1.55	O=C1NC(=O)/C(=C/c2ccc3nccnc3c2)S1 + Cc1nc(Nc2ncc(C(=O)Nc3c(C)cccc3Cl)s2)cc(N2CCN(CCO)CC2)n1 [dasatinib]	0.64	0.464	0.879	0.491	0.781	0.479	0.704	0.343	2.57	2.15	3.46	2.33	3.09	2.01	2.56	2.23	> 10	> 10	8.39	> 10	> 10	4.25
> 10	CCn1c(N)c(C(=O)NC)c(=O)c2ccc(C#C[C@@](C)(O)COC)nc21 + Cc1nc(Nc2ncc(C(=O)Nc3c(C)cccc3Cl)s2)cc(N2CCN(CCO)CC2)n1 [dasatinib]	0.721	0.589	0.884	0.671	0.773	0.432	0.684	0.588	2.72	2.59	4.43	2.74	3.2	1.87	2.52	2.43	> 10	> 10	> 10	> 10	> 10	> 10
4.54	O=c1cc(N2CCOCC2)oc2c(-c3ccccc3)cccc12 + Cc1nc(Nc2ncc(C(=O)Nc3c(C)cccc3Cl)s2)cc(N2CCN(CCO)CC2)n1 [dasatinib]	0.663	0.394	0.457	0.412	0.656	0.362	0.512	0.393	2.49	2.28	3.24	2.2	2.88	1.77	2.34	1.98	> 10	9.2	5.32	> 10	> 10	3.01
> 10	C[C@@H]1CCN(C(=O)CC#N)C[C@@H]1N(C)c1ncnc2[nH]ccc12 + Cc1nc(Nc2ncc(C(=O)Nc3c(C)cccc3Cl)s2)cc(N2CCN(CCO)CC2)n1 [dasatinib]	0.7	0.743	1.23	0.664	1	0.363	0.695	0.685	2.59	3.03	4.82	2.6	3.91	1.62	2.51	2.53	> 10	> 10	> 10	> 10	> 10	> 10
6.65	CCS(=O)(=O)N1CC(CC#N)(n2cc(-c3ncnc4[nH]ccc34)cn2)C1 + Cc1nc(Nc2ncc(C(=O)Nc3c(C)cccc3Cl)s2)cc(N2CCN(CCO)CC2)n1 [dasatinib]	0.689	0.399	0.917	0.625	1.07	0.44	0.692	0.47	2.61	2.58	4.24	2.46	4.02	1.78	2.51	2.4	> 10	> 10	> 10	> 10	> 10	8.06
> 10	Cn1cnc(N)c2ncnc1-2 [3-Methyladenine] + Cc1nc(Nc2ncc(C(=O)Nc3c(C)cccc3Cl)s2)cc(N2CCN(CCO)CC2)n1 [dasatinib]	0.691	0.542	1.03	0.649	0.947	0.329	0.703	0.673	2.57	2.32	4.32	2.57	3.49	1.56	2.57	2.47	> 10	> 10	> 10	> 10	> 10	> 10
> 10	Cc1ccc(-n2nc(C(C)(C)C)cc2NC(=O)Nc2ccc(OCCN3CCOCC3)c3ccccc23)cc1 [BIRB 796 (Doramapimod)] + Cc1nc(Nc2ncc(C(=O)Nc3c(C)cccc3Cl)s2)cc(N2CCN(CCO)CC2)n1 [dasatinib]	0.66	0.639	0.946	0.537	0.755	0.439	0.659	0.567	2.49	2.63	3.79	2.29	3.07	1.78	2.4	2.29	> 10	> 10	> 10	> 10	> 10	> 10

Compound	GI50 of drug (786-O [18]) [µM]	minimum viability across doses (TK-10 [1])	minimum viability across doses (786-O [2])	minimum viability across doses (UO-31 [3])	minimum viability across doses (769-P [4])	minimum viability across doses (A498 [5])	minimum viability across doses (ACHN [6])	minimum viability across doses (SN12C [7])	minimum viability across doses (CAKI-1 [8])	AUC of dose-response viability curve (TK-10 [9])	AUC of dose-response viability curve (786-O [10])	AUC of dose-response viability curve (UO-31 [11])	AUC of dose-response viability curve (769-P [12])	AUC of dose-response viability curve (A498 [13])	AUC of dose-response viability curve (ACHN [14])	AUC of dose-response viability curve (SN12C [15])	AUC of dose-response viability curve (CAKI-1 [16])	GI50 of drug (TK-10 [17]) [µM]	GI50 of drug (UO-31 [19]) [µM]	GI50 of drug (769-P [20]) [µM]	GI50 of drug (A498 [21]) [µM]	GI50 of drug (SN12C [22]) [µM]	GI50 of drug (CAKI-1 [23]) [µM]
Cc1ccccc1-n1c(Cn2cnc3c(N)ncnc32)nc2cccc(C)c2c1=O + Cc1nc(Nc2ncc(C(=O)Nc3c(C)cccc3Cl)s2)cc(N2CCN(CCO)CC2)n1 [dasatinib]	5.69	0.651	0.444	0.738	0.612	0.859	0.443	0.695	0.516	2.49	1.98	3.34	2.4	3.27	1.87	2.53	2.28	> 10	> 10	> 10	> 10	> 10	> 10
